Earlier results, collected in patent US20180169018A1, “Method for improving the dissolution profile of a biologically active material” (iCeutica Pty Ltd., priority 2009, published 2018).

Conditions: absorption by the body

In the case of `Cc1cnc(NC(=O)C2=C(O)c3ccccc3S(=O)(=O)N2C)s1` [Meloxicam, meloxicam], the Tmax is listed as 4 to 5 h.
